In patent US6620587B1, “Ribosome complexes as selection particles for in vitro display and evolution of proteins” (Discerna Limited, priority 1997, dated 2003):

Target: DB3 VH/K expressed as an ARM
Assay: Inhibition by free steroids of DB3 VH/K ARM binding to progesterone-coated beads
Parameters: species or system mouse
Conditions: free steroid added to DB3 ARM mixture
Experimental: FIG. 6. […] This supports the correct folding of the antibody fragment on the ribosome.
The free steroid inibitors were added to the DB3 ARM mixture in order to block binding to the progesterone-coated beads. They are progesterone-11α-hemisuccinate (HMS) (P11), progesterone-3-carboxymethyloxime (P3); progesterone-6-HMS (P6) and progesterone-21-HMS (P21). The inhibition of free DB3 VH/K in an ELISA reaction is shown on the right, with the efficiency of the steroids in the order P11>P3>P6>P21.

## CC(=O)[C@H]1CC[C@H]2[C@@H]3CCC4=CC(=O)CC[C@]4(C)[C@H]3[C@H](OC(=O)CCC(=O)O)C[C@]12C [progesterone-11α-HMS, progesterone-11α-hemisuccinate]
  50% inhibition of DB3 VH/K ARM binding: 1 ng
read-out: 50% inhibition of DB3 VH/K ARM binding
  IC50: 2.5 nM
